# Source: patent US11548855B2, “Pyrazole amide compound and application thereof, and fungicide” (Shandong United Pesticide Industry Co. Ltd., priority 2017, dated 2023)
# How the values were obtained:
# [1] = test system: wheat powdery mildew; assay: Field trial, wheat powdery mildew; assay type: in vivo, Erysiphe graminis; settings: sprayed once
# Experimental: II. The Wheat Powdery Mildew Test Method:
# (§1) Spray method: Stein and leaf spraying (Applicator: Xinkangda lithium battery electric sprayer).
# Test crops: wheat (cultivars: Liaochun 10)
# (§2) The test was carried out in Shenyang, the test field was loam with rich organic matters and normal management of fertilizer and water, and no other pesticide was applied during the test.
# (§3) The arrangement of the test plot was random block permutation; the area of the test plot: 15 m^2; repeat times: 3 times; spray time and frequency: Sep. 17, 2018, once. Spray dosage: each treatment was repeated 3 times, the total water consumption was 8 L. No other pesticide was applied during the test.
# The incidence of disease spots in each plot was investigated by diagonal selecting 4 samples/plot and 20 plants/samples, and the first leaf below the flag leaf of each plant was investigated.
# (§4) The grading standard of crop disease was as follows:
# (§5) Grade 0: no leaf-spot area;
# (§6) Grade 1: the ratio of leaf-spot area to leaf area is less than 5%;
# (§7) Grade 3: the ratio of leaf-spot area to leaf area is between 6-25%;
# (§8) Grade 5: the ratio of leaf-spot area to leaf area is between 26-50%;
# (§9) Grade 7: the ratio of leaf-spot area to leaf area is between 51-75%;
# (§10) Grade 9: the ratio of leaf-spot area to leaf area is between 76-100%;
# (§11) According to the relevant content of the “Guidelines for the field efficacy trials of pesticides of the People's Republic of China (PRC)”, the disease index was calculated according to the grading standard, and the control effect in a unit of % was calculated based on the disease index, and the test data of significance analysis was performed by using DPS evaluation system (DMRT).
# [2] = test system: cucumber powdery mildew; assay: Greenhouse pot test, cucumber powdery mildew; assay type: in vivo; settings: Cucumis sativus, 192 h, greenhouse pot, read-out: Control effect (%) Cucumber powdery mildew
# Experimental: (§12) Test method: each of the test compounds in Table 1 was dispensed to 5 wt % emulsifiable concentrate (hereinafter referred to as 5% EC). The greenhouse pot test was used in each experiment, and the effective concentrations of each compound were illustrated in Table 1.
# Cucumber powdery mildew: cucumber seedling in a true leaf period with uniform growth was selected, and dried in the shade for 24 h after spray treatment. Fresh cucumber powdery mildew spores on the cucumber leaves were collected and washed, and filtered through a double gauze to prepare a spores suspension with concentration of about 100,000/mL, then spray inoculation was applied. The test materials inoculated were moved into a greenhouse (lighting 21-23° C.), after 8 days, the grading investigation was carried out according to the disease incidence condition of blank control, and the control effect in a unit of % was calculated according to disease index.
# (§13) The investigation method: “Guidelines for the field efficacy trials of pesticides” was adopted as the grading standard, and the control effect in a unit of % was calculated based on the disease index. Disease index=Σ(number of diseased leaves at each grade×relative grade value)×100/(total number of leaves×9); Control effect (%)=(disease index of control−disease index of treated)×100/disease index of control;
# (§14) The compounds provided by the present disclosure and some control compounds were tested by the same methods in the Test example 1, except that the effective concentrations of the compounds in this Test example are shown in Table 2.
# [3] = test system: soybean rust (Phakopsora pacchyrhizi Sydow); assay: Greenhouse pot test, soybean rust; assay type: in vivo; settings: Glycine max, 168 h, read-out: Control effect (%) Soybean rust
# Experimental: as §12
# Soybean rust: two-leaf stage potted soybean seedling with uniform growth was selected and made foliar spray treatment with 5% EC, the blank control sprayed with clean water was additionally arranged, three replicates were carried out. After 24 h, the leaves of the host plants were inoculated with sporangial suspensions of the fungi soybean rust (Phakopsora pacchyrhizi Sydow), the plants were stored in humidity chamber (temperature 20-25° C., relative humidity>95%) and then transferred to greenhouse (25±1° C.) 8-16 h after infection. After 7 days, the screening results were investigated according to the disease incidence condition of blank control.
# as §13, §14
# [4] = test system: corn rust (Puccinia sorghi); assay: Greenhouse pot test, corn rust; assay type: in vivo; settings: Puccinia sorghi, 168 h, read-out: Control effect (%) Corn rust
# Experimental: as §12
# Corn rust: two-three leaf stage potted corn seedling with uniform growth was selected and made foliar spray treatment with 5% EC, the blank control sprayed with clean water was additionally arranged, three replicates were carried out. After 24 h, the leaves of the host plants were inoculated with sporangial suspensions of the fungi corn rust (Puccinia sorghi), the plants were stored in humidity chamber (temperature: lighting 25° C., dark 20° C., relative humidity 95-100%) and then transferred to greenhouse (25±1° C.) 24 h after infection. After 7 days, the screening results were investigated according to the disease incidence condition of blank control.
# as §13, §14
# [5] = test system: rice sheath blight fungi (Rhizoctonia solami); assay: Greenhouse pot test, rice sheath blight; assay type: in vivo
# Experimental: as §14
# In addition, the test method for rice sheath blight as following steps:
# The potted rice seedling with uniform growth was selected, and dried in the shade for 24 h after spray treatment, then inoculated 3 blocks of 0.25 cm^2 rice sheath blight fungi (Rhizoctonia solami) at the base of seedling by clamp inoculation bacterium block method. The test materials inoculated were moved into greenhouse (temperature: lighting 28° C., dark 25° C., relative humidity 95%), after 7 days, investigate 5 leaves of per block treatment, the grading investigation was carried out according to the disease incidence condition of sheaths and leaves of rice, “Guidelines for the field efficacy trials of pesticides” was adopted as the grading standard, the disease index was calculated according to the grading standard, and the control effect in a unit of % was calculated according to disease index.
# [6] = test system: soybean rust; assay: Field trial, soybean rust; assay type: in vivo, Phakopsora pacchyrhizi Sydow; settings: sprayed 2 times
# Experimental: III. The Soybean Rust Test Method:
# as §1
# Test crops: soybean (cultivars: Glycine max(L) Merr)
# as §2
# as §3, with “25” for “15”, “2 times on Aug. 11, 2018 and Aug. 21, 2018 respectively.” for “Sep. 17, 2018, once.”, “test. […] 15-20 days after the second spray treatment, the control effect was investigated.” for “test.”
# The incidence of disease spots in each plot was investigated by diagonal selecting 5 samples/plot and 20 plants/samples, 10 leaves/plant was surveyed.
# as §4, §5, §6, §7, §8, §9, §10, §11
smiles,measurement,setting,value
Cn1cc(C(=O)Nc2ccccc2Oc2ccc(C(F)(F)F)cc2C(F)(F)F)c(C(F)F)n1 [Compound 1],Control effect (%) Wheat powdery mildew,[1]; 100 mg/L,98%
same,Control effect (%) Wheat powdery mildew,[1]; 200 mg/L,100%
same,pest or weed control at 1 µg/mL,[2]; 1 mg/L,90%
same,pest or weed control at 1.5625 µg/mL,[2]; 1.5625 mg/L,95%
same,pest or weed control at 2.5 µg/mL,[2]; 2.5 mg/L,98%
same,pest or weed control at 3.125 µg/mL,[2]; 3.1250 mg/L,100%
same,pest or weed control at 6.25 µg/mL,[2]; 6.25 mg/L,100%
same,pest or weed control at 10 µg/mL,[2]; 10 mg/L,100%
same,pest or weed control at 25 µg/mL,[2]; 25 mg/L,100%
same,pest or weed control at 100 µg/mL,[2]; 100 mg/L,100%
same,pest or weed control at 0.5 µg/mL,[3]; 0.5 mg/L,100%
same,pest or weed control at 1 µg/mL,[3]; 1 mg/L,100%
same,pest or weed control at 1.5625 µg/mL,[3]; 1.5625 mg/L,100%
same,pest or weed control at 2.5 µg/mL,[3]; 2.5 mg/L,100%
same,pest or weed control at 3.125 µg/mL,[3]; 3.1250 mg/L,100%
same,pest or weed control at 6.25 µg/mL,[3]; 6.25 mg/L,100%
same,pest or weed control at 10 µg/mL,[3]; 10 mg/L,100%
same,pest or weed control at 25 µg/mL,[3]; 25 mg/L,100%
same,pest or weed control at 100 µg/mL,[3]; 100 mg/L,100%
same,pest or weed control at 1.5625 µg/mL,[4]; 1.5625 mg/L,100%
same,pest or weed control at 2.5 µg/mL,[4]; 2.5 mg/L,100%
same,pest or weed control at 3.125 µg/mL,[4]; 3.1250 mg/L,100%
same,pest or weed control at 6.25 µg/mL,[4]; 6.25 mg/L,100%
same,pest or weed control at 10 µg/mL,[4]; 10 mg/L,100%
same,pest or weed control at 25 µg/mL,[4]; 25 mg/L,100%
same,pest or weed control at 100 µg/mL,[4]; 100 mg/L,100%
same,Control effect (%) Rice sheath blight,[5]; 0.625 mg/L,75%
same,Control effect (%) Rice sheath blight,[5]; 1 mg/L,80%
same,Control effect (%) Rice sheath blight,[5]; 1.5625 mg/L,85%
same,Control effect (%) Rice sheath blight,[5]; 2.5 mg/L,90%
same,Control effect (%) Rice sheath blight,[5]; 3.1250 mg/L,100%
same,Control effect (%) Rice sheath blight,[5]; 10 mg/L,100%
same,Control effect (%),[6]; dosage 50 mg/L,92.67%
same,Control effect (%),[6]; dosage 75 mg/L,94.56%
same,Control effect (%),[6]; dosage 100 mg/L,97.69%
